In general, IC50 refers to the concentration at which inhibition is half-maximal. Read a high IC50 as a need for much substance. The term GI50 denotes the concentration giving 50% growth inhibition. A low value points to more potent growth inhibition.

One assay has as its target EGFR Del19/T790M/C797S (Homo sapiens, UniProt P00533, C797S/T790M, form not given). As to the kind of experiment: Enzyme IC50, EGFR Del19/T790M/C797S. The class given is biochemical.
In assay [1] the test system is BaF3-EGFR (Del19/T790M/C797S) cells. Description: Inhibitory activity on Ba/F3 cell proliferation (CellTiter-Glo, 72 hours). The class given is cell-based. Conditions: Ba/F3 cells expressing EGFR Del19/T790M/C797S. The protocol: (§1) The following experiments were performed to evaluate the inhibitory activity of the compound represented by Chemical Formula 1 according to the present invention on the proliferation of Ba/F3 cells expressing EGFR mutants.
(§2) BaF3-EGFR (WT) and BaF3-EGFR (Del19/T790M/C797S) cells were seeded in a clear bottom white 96-well plate at a density of 3×10^3/100 μl/well, and then 0.5 μl/well of the culture medium, containing the compounds at 12 concentrations (0.00001-2 mM) serially diluted in 3 folds and the DMSO control, was added to a final concentration of 0.00005-10 μM, followed by culturing in a 37° C. CO2 incubator for 72 hours. After 72 hours, the plates treated with the compounds were taken out, treated with 100 μl/well of CellTiter-Glo® 2.0 Assay (Promega) solution, and mixed well. After mixing well at room temperature for about 10 minutes, […] was measured using a microplate reader. As to Data, GI50 (μM) values were calculated using GraphPad Prism 8.3.0 (GraphPad software Inc., San Diego) as percentages in proportion to vehicle-based treated cells. The result values were calculated as a cell growth rate (%) compared to the control group. A graph was created using the GraphPad Prism version 5.0 program, and GI50 (μM) values were calculated.
(In general: Cellular ATP, detected with luciferase, serves as a proxy for viable cell number.)

In a further assay the test system is BaF3-EGFR (WT) cells. Described as above. The class given is cell-based. The conditions noted are these: Ba/F3 cells expressing EGFR WT. As for the experimental part:
as §1, §2

EGFR Del19/T790M/C797S, sequence (P00533 25-1210 T790M/C797S, form open): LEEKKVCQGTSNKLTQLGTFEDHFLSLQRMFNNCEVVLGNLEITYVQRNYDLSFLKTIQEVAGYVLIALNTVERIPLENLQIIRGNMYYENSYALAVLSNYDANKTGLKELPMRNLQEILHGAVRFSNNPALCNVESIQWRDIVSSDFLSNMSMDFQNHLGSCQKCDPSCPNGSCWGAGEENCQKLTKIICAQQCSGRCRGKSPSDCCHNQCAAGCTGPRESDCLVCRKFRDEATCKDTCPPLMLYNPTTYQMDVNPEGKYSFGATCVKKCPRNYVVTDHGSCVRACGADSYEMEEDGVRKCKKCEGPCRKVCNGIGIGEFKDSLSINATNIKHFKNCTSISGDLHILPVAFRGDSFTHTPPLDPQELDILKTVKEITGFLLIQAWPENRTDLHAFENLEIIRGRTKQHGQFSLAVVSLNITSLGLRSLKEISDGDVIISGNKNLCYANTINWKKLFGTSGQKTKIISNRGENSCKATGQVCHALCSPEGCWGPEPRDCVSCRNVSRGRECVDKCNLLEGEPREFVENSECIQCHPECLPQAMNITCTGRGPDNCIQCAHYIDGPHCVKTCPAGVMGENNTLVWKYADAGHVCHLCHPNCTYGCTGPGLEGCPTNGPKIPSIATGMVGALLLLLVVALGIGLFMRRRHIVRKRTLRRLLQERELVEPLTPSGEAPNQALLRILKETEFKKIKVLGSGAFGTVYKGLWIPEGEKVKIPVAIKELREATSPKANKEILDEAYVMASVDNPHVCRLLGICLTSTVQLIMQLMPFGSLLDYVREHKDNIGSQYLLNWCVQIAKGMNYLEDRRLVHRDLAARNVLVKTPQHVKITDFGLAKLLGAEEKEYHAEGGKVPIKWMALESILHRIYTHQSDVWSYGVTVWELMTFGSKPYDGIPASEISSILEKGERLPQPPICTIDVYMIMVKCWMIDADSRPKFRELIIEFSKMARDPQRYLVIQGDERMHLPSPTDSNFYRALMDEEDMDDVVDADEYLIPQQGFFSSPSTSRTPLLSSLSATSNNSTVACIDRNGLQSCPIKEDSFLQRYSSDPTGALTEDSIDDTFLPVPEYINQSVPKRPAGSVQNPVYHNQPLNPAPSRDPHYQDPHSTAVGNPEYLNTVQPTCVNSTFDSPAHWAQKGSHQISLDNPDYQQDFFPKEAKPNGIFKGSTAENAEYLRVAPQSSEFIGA

Take `CN1CCN(c2cc(OCC(F)(F)F)c(Nc3nc(Nc4ccc5nccnc5c4P(C)(C)=O)c4cc[nH]c4n3)cc2-c2cnn(C)c2)CC1` [Example 1, dimethyl (6-((2-((5-(1-methyl-1H-pyrazol-4-yl)-4-(4-methylpiperazin-1-yl)-2-(2,2,2-trifluoroethoxy)phenyl)amino)-7H-pyrrolo[2,3-d]pyrimidin-4-yl)amino)quinoxalin-5-yl)phosphine oxide]: at EGFR Del19/T790M/C797S, the IC50 is at most 0.05 µM. The values for the 50% growth inhibitory concentration (GI50) (in assay [1]; in the assay with BaF3-EGFR (WT) cells) were 0.05 to 0.1 µM and over 0.1 µM, respectively.

With `Cn1cc(-c2cc(Nc3nc(Nc4ccc5nccnc5c4P(C)(C)=O)c4cc[nH]c4n3)c(OCC(F)(F)F)cc2N2CCOCC2)cn1` [Example 2, dimethyl (6-((2-((5-(1-methyl-1H-pyrazol-4-yl)-4-morpholino-2-(2,2,2-trifluoroethoxy)phenyl)amino)-7H-pyrrolo[2,3-d]pyrimidin-4-yl)amino)quinoxalin-5-yl) phosphine oxide], the IC50 against EGFR Del19/T790M/C797S was at most 0.05 µM. In addition, the 50% growth inhibitory concentration (GI50) was at most 0.05 µM in assay [1] and over 0.1 µM with BaF3-EGFR (WT) cells.

The molecule `Cn1cc(-c2cc(Nc3nc(Nc4ccc5nccnc5c4P(C)(C)=O)c4cc[nH]c4n3)c(OCC(F)(F)F)cc2F)cn1` [Example 3, (6-((2-((4-fluoro-5-(1-methyl-1H-pyrazol-4-yl)-2-(2,2,2-trifluoroethoxy)phenyl)amino)-7H-pyrrolo[2,3-d]pyrimidin-4-yl)amino)quinoxalin-5-yl) dimethyl-phosphine oxide] showed an IC50 at EGFR Del19/T790M/C797S of at most 0.05 µM. In addition, the GI50 (in assay [1]; in the assay on BaF3-EGFR (WT) cells) was over 0.1 µM each time.

Turning to `CN1CCN(C2CCN(c3cc(OCC(F)(F)F)c(Nc4nc(Nc5ccc6nccnc6c5P(C)(C)=O)c5cc[nH]c5n4)cc3-c3cnn(C)c3)CC2)CC1` [Example 4, dimethyl (6-((2-((5-(1-methyl-1H-pyrazol-4-yl)-4-(4-(4-methylpiperazin-1-yl)piperidin-1-yl)-2-(2,2,2-trifluoroethoxy)phenyl)amino)-7H-pyrrolo[2,3-d]pyrimidin-4-yl)amino)quinoxalin-5-yl) phosphine oxide], the IC50 at EGFR Del19/T790M/C797S was at most 0.05 µM. In addition, the figures for the concentration for 50% growth inhibition (GI50) (in assay [1]; in the assay with BaF3-EGFR (WT) cells) were 0.05 to 0.1 µM and over 0.1 µM, respectively.

The molecule `Cn1cc(-c2ccc(OCC(F)(F)F)c(Nc3nc(Nc4ccc5nccnc5c4P(C)(C)=O)c4cc[nH]c4n3)c2)cn1` [Example 5, dimethyl (6-((2-((5-(1-methyl-1H-pyrazol-4-yl)-2-(2,2,2-trifluoroethoxy)phenyl)amino)-7H-pyrrolo[2,3-d]pyrimidin-4-yl)amino)quinoxalin-5-yl)phosphine oxide] displayed an IC50 on EGFR Del19/T790M/C797S of 0.05 to 0.1 µM. For the same molecule, the GI50 is over 0.1 µM in assay [1] and 0.05 to 0.1 µM in the assay with BaF3-EGFR (WT) cells.

The molecule `Cn1cc(-c2cc(Nc3nc(Nc4ccc5nccnc5c4P(C)(C)=O)c4cc[nH]c4n3)c(OCC(F)(F)F)cc2N2CCC(N3CCOCC3)CC2)cn1` [Example 6, dimethyl (6-((2-((5-(1-methyl-1H-pyrazol-4-yl)-4-(4-morpholino-piperidin-1-yl)-2-(2,2,2-trifluoroethoxy)phenyl)amino)-7H-pyrrolo[2,3-d]pyrimidin-4-yl)amino)quinoxalin-5-yl)phosphine oxide] had a half-maximal inhibitory concentration (IC50) against EGFR Del19/T790M/C797S of at most 0.05 µM. Further, the concentration for 50% growth inhibition (GI50) in assay [1] was at most 0.05 µM; in the assay with BaF3-EGFR (WT) cells, over 0.1 µM.

In the case of `COc1cc(N2CCC(N3CCN(C)CC3)CC2)cnc1Nc1cc(Nc2ccc3nccnc3c2P(C)(C)=O)c2cc[nH]c2n1` [Example 65, (6-((6-((3-methoxy-5-(4-(4-methylpiperazin-1-yl)piperidin-1-yl)pyridin-2-yl)amino)-1H-pyrrolo[2,3-b]pyridin-4-yl)amino)quinoxalin-5-yl)dimethyl-phosphine oxide], the concentration for 50% growth inhibition (GI50) (in assay [1]; in the assay on BaF3-EGFR (WT) cells) was over 0.1 µM throughout.

Turning to `COc1cc(N2CCC(N3CCN(C)CC3)CC2)c(F)cc1Nc1nc(Nc2ccc3nccnc3c2P(C)(C)=O)c2cc[nH]c2n1` [Example 66, (6-((2-((5-fluoro-2-methoxy-4-(4-(4-methylpiperazin-1-yl)piperidin-1-yl)phenyl)amino)-7H-pyrrolo[2,3-d]pyrimidin-4-yl)amino)quinoxalin-5-yl)dimethyl-phosphine oxide], the GI50 (in assay [1]; in the assay with BaF3-EGFR (WT) cells) was over 0.1 µM in each case.

`COc1cc(N2CCC(N3CCN(C)CC3)CC2)c(C(C)C)cc1Nc1nc(Nc2ccc3nccnc3c2P(C)(C)=O)c2cc[nH]c2n1` [Example 67, (6-((2-((5-isopropyl-2-methoxy-4-(4-(4-methylpiperazin-1-yl)piperidin-1-yl)phenyl)amino)-7H-pyrrolo[2,3-d]pyrimidin-4-yl)amino)quinoxalin-5-yl)dimethyl-phosphine oxide]: the GI50 (in assay [1]; in the assay on BaF3-EGFR (WT) cells) was over 0.1 µM in each case.

Consider `COc1cc(N2CCC(N3CCN(C)CC3)CC2)c(C)cc1Nc1nc(Nc2cnc3ccccc3c2P(C)(C)=O)c2cc[nH]c2n1` [Example 90, (3-((2-((2-methoxy-5-methyl-4-(4-(4-methylpiperazin-1-yl)piperidin-1-yl)phenyl)amino)-7H-pyrrolo[2,3-d]pyrimidin-4-yl)amino)quinolin-4-yl)dimethyl-phosphine oxide], for which the GI50 (in assay [1]; in the assay on BaF3-EGFR (WT) cells) was over 0.1 µM throughout.

Turning to `COc1cc(N2CCN(C(C)(C)CF)CC2)c(-c2cnn(C)c2)cc1Nc1nc(Nc2ccc3nccnc3c2P(C)(C)=O)c2cc[nH]c2n1` [Example 109, (6-((2-((4-(4-(1-fluoro-2-methylpropan-2-yl)piperazin-1-yl)-2-methoxy-5-(1-methyl-1H-pyrazol-4-yl)phenyl)amino)-7H-pyrrolo[2,3-d]pyrimidin-4-yl)amino)quinoxalin-5-yl)dimethyl-phosphine oxide], the GI50 was at most 0.05 µM in assay [1] and over 0.1 µM in the assay on BaF3-EGFR (WT) cells.

`Cc1cc(Nc2nc(Nc3ccc4nccnc4c3P(C)(C)=O)c3cc[nH]c3n2)c2c(c1N1CCN(C)CC1)CCO2` [Example 121, dimethyl (6-((2-((5-methyl-4-(4-methylpiperazin-1-yl)-2,3-dihydrobenzo-furan-7-yl)amino)-7H-pyrrolo[2,3-d]pyrimidin-4-yl)amino)quinoxalin-5-yl)phosphine oxide]: the GI50 (in assay [1]; with BaF3-EGFR (WT) cells) was over 0.1 µM throughout.

In the case of `CN1CCN(c2c(-c3cnn(C)c3)cc(Nc3nc(Nc4ccc5nccnc5c4P(C)(C)=O)c4cc[nH]c4n3)c3c2OCO3)CC1` [Example 129, dimethyl (6-((2-((6-(1-methyl-1H-pyrazol-4-yl)-7-(4-methylpiperazin-1-yl)benzo[d] [1,3]dioxol-4-yl)amino)-7H-pyrrolo[2,3-d]pyrimidin-4-yl)amino)quinoxalin-5-yl)phosphine oxide], the concentration for 50% growth inhibition (GI50) in assay [1] is at most 0.05 µM; in the assay with BaF3-EGFR (WT) cells, over 0.1 µM.

Turning to `CN1CCN(c2c(-c3cnn(C)c3)cc(Nc3nc(Nc4ccc5nccnc5c4P(C)(C)=O)c4cc[nH]c4n3)c3c2OCCO3)CC1` [Example 130, dimethyl (6-((2-((7-(1-methyl-1H-pyrazol-4-yl)-8-(4-methylpiperazin-1-yl)-2,3-dihydrobenzo [b][1,4]dioxin-5-yl)amino)-7H-pyrrolo[2,3-d]pyrimidin-4-yl)amino)quinoxalin-5-yl)phosphine oxide], the 50% growth inhibitory concentration (GI50) in assay [1] was at most 0.05 µM; in the assay on BaF3-EGFR (WT) cells, over 0.1 µM.

The values above are taken from US20240067668A1, “HETEROARYL DERIVATIVE COMPOUND AND USE THEREOF” (VORONOI INC., priority 2020, published 2024).
